From patent US11377444B2, “Pyridopyrimidine compounds acting as mTORC 1/2 dual inhibitors” (MEDSHINE DISCOVERY INC., priority 2017, dated 2022)
Like-named read-outs stand apart in the source and are kept apart here.

Assays:
[1] = Pharmacokinetic evaluation in plasma after IV and PO administration; type: in vivo; conditions: female Balb/c mice; for AUC(0-inf) / AUC(0-t) / C0 / clearance / half-life / MRT inf / MRT last / Vd / Cmax / Tmax / bioavailability: mouse; for MRT inf: read-out: MRT0-inf; for MRT last: read-out: MRT0-last; for Vd: read-out: Vdss
Experimental: Experimental Embodiment 3: Pharmacokinetic Evaluation
The test compound was mixed with […] (Cremophor EL), vortexed and sonicated to prepare a 1 mg/mL near-clear solution, which was filtered with a microporous filter membrane for future use. Female Balb/c mice of 18 to 20 grams were selected and the solution of the test compound was administered intravenously at a dose of 1 or 2 mg/kg. The test compound was mixed with an aqueous solution of 1% Tween 80, 9% polyethylene glycol 400, and 90% water, vortexed and sonicated to prepare 1 mg/mL near-clear solution, which was filtered with a microporous filter membrane for future use.
Female Balb/c mice of 18 to 20 grams were selected, and the solution of the test compound was orally administered at a dose of 2 or 10 mg/kg. The whole blood was collected at a certain time, and prepared into plasma. The drug concentration was analyzed by LC-MS/MS, and the pharmacokinetic parameters were calculated using Phoenix WinNonlin software (Pharsight Corporation, USA).

[2] = system: OE21 cell; assay: Cell proliferation inhibitory activity (Cell-Titer-Glo), OE21; type: cell-based; conditions: OE21, 72 h; 3 days incubation
Source text: (§1) Experimental Embodiment 2: Evaluation of Cell Proliferation Inhibitory Activity
(§2) Experiment objective: To detect cell proliferation inhibitory activity of the tested compounds.
(§3) Experimental principle: The luciferase in the Cell-Titer-Glo reagent produces oxyluciferin using luciferin, oxygen and ATP as reaction substrates, and releases energy in the form of light. Since the reaction of luciferase requires ATP, the total amount of light generated by the reaction is proportional to the total amount of ATP that reflects cell viability.
(§4) Cell lines: MCF-7 cell line […], HT-29 cell line (ATCC-HTB-38), OE21 (ECACC-96062201), NCI-N87 cell line (ATCC-CRL-5822)
(§5) Cell culture medium: (RPMI 1640 culture medium (Invitrogen #1868546; 10% serum Invitrogen #1804958; L-glutamine 1×, Invitrogen #1830863; dual antibiotic Hyclone #J170012))
(§6) Cell Titer-Glo® Luminescent Cell Viability Assay Kit (Promega #G7573)
(§7) The cells were inoculated in a 384- or 96-well plate with a density of 1000 cells per well and 25 μL per well according to the instructions of the cell inoculating plate. The edge wells were not inoculated with cells, and was supplemented with […].
(§8) (i) The mother solution of the compound was 10 mM, and diluted with DMSO to an initial concentration of 4 mM. The compound was added to the compound mother solution, 9 μL per well.
(§9) (ii) The compound was diluted with ECHO liquid-handling workstation. Each well of the cell plate was added with 125 nL compound. Each well of the cell wells in 2nd column and 23rd column was added with 125 nL DMSO, and each of the PBS wells in 1st column and 24th column was added with 125 nL DMSO.
(§10) (iii) Each well of the cell plate was supplemented with 25 μL culture medium, the final volume in each well of the cell plate was 50 μL, […] 3 times dilution, 10 concentrations, each concentration was duplicated in left and right wells, the final DMSO concentration was 0.25%.
(§11) 2.3. After addition of the compound, centrifugation was performed at 1000 rpm for 1 min, and the cell plate was placed in a 37° C., 5% CO2 incubator for 3 days.
(§12) The cell plate was taken out from the incubator and equilibrated at room temperature for 30 minutes. 25 μL Cell-Titer-Glo reagent was added to each well, shaken for one minute to mix thoroughly, centrifuged at 1000 rpm for 1 minute. After 10 minutes, the plate was read on PerkinElmer Envision with a […] reading time was set at 0.2 second.

[3] = system: HT-29 cell; assay: Cell proliferation inhibitory activity (Cell-Titer-Glo), HT-29; type: cell-based; conditions: Homo sapiens, HT-29, 72 h, 3 days incubation
Source text: as §1, §2, §3, §4, §5, §6, §7, §8, §9, §10, §11, §12

[4] = system: N87 cell; assay: Cell proliferation inhibitory activity (Cell-Titer-Glo), N87; type: cell-based; conditions: 72 h; 3 days incubation
Source text: as §1, §2, §3, §4, §5, §6, §7, §8, §9, §10, §11, §12

[5] = molecular target: T1, mTOR kinase (mTORC1 and mTORC2 kinase complex) (Homo sapiens, UniProt P42345); assay: In vitro evaluation of mTOR kinase inhibitory activity (DiscoverX ligand-bead competition binding, qPCR readout)
T1 construct: purchased DiscoverX; host or cells: HEK-293
Method in brief: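 Tagged mTOR expressed in HEK-293 cells was combined with streptavidin beads carrying biotinylated ligand and DMSO-dissolved compound, shaken 1 h at room temperature. Beads were washed, then eluted 30 min with […] non-biotin affinity ligand. Kinase in eluate quantified by qPCR.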

Which results are given for `CNC(=O)c1cccc(-c2ccc3c(N4CCOC[C@@H]4C)nc(N4CCOC[C@@H]4C)nc3n2)c1` [AZD2014, reference compound]?
Tlast ([1]; IV 1 mg/kg): 8.00 h; AUCExtra ([1]; IV 2 mg/kg): 0.384%; AUMCExtra ([1]; IV 2 mg/kg): 2.95%; Tlast ([1]; IV 2 mg/kg): 8.00 h; AUCExtra ([1]; PO 2 mg/kg): 0.0496%; AUMCExtra ([1]; PO 2 mg/kg): 0.347%; Tlast ([1]; PO 2 mg/kg): 12.0 h; AUCExtra ([1]; PO 10 mg/kg): 0.156%; AUMCExtra ([1]; PO 10 mg/kg): 1.82%; Tlast ([1]; PO 10 mg/kg): 24.0 h; AUC(0-inf) ([1]; IV 1 mg/kg): 4.28 µM·h; AUC(0-t) ([1]; IV 1 mg/kg): 4.27 µM·h; C0 ([1]; IV 1 mg/kg): 4.79 µM; clearance ([1]; IV 1 mg/kg): 8.41 mL/min/kg; half-life ([1]; IV 1 mg/kg): 0.967 h; MRT inf ([1]; IV 1 mg/kg): 1.88 h; MRT last ([1]; IV 1 mg/kg): 0.268 h; Vd ([1]; IV 1 mg/kg): 0.677 L/kg; AUC(0-inf) ([1]; IV 2 mg/kg): 8.91 µM·h; AUC(0-t) ([1]; IV 2 mg/kg): 8.88 µM·h; C0 ([1]; IV 2 mg/kg): 8.07 µM; clearance ([1]; IV 2 mg/kg): 8.08 mL/min/kg; half-life ([1]; IV 2 mg/kg): 1.05 h; MRT inf ([1]; IV 2 mg/kg): 1.24 h; MRT last ([1]; IV 2 mg/kg): 1.2 h; Vd ([1]; IV 2 mg/kg): 0.599 L/kg; AUC(0-inf) ([1]; PO 2 mg/kg): 7.24 µM·h; AUC(0-t) ([1]; PO 2 mg/kg): 8.24 µM·h; Cmax ([1]; PO 2 mg/kg): 4.37 µM; Tmax ([1]; PO 2 mg/kg): 0.5 h; bioavailability ([1]; PO 2 mg/kg): 96.2%; half-life ([1]; PO 2 mg/kg): 1.14 h; MRT inf ([1]; PO 2 mg/kg): 1.95 h; MRT last ([1]; PO 2 mg/kg): 1.95 h; AUC(0-inf) ([1]; PO 10 mg/kg): 41.5 µM·h; AUC(0-t) ([1]; PO 10 mg/kg): 41.4 µM·h; Cmax ([1]; PO 10 mg/kg): 17 µM; Tmax ([1]; PO 10 mg/kg): 0.25 h; bioavailability ([1]; PO 10 mg/kg): 93.1%; half-life ([1]; PO 10 mg/kg): 3.46 h; MRT inf ([1]; PO 10 mg/kg): 2.5 h; MRT last ([1]; PO 10 mg/kg): 2.45 h; IC50 [2]: 0.148 µM; IC50 [3]: 0.316 µM; IC50 [4]: 0.059 µM

For `CNC(=O)c1cccc(-c2ccc3c(N4CCOC[C@@H]4C)nc(N4CCOC5(CCC5)C4)nc3n2)c1` [Embodiment 23], which AUCExtra ([1]; IV 2 mg/kg) is on record?
The AUCExtra was 0.0592%.

What about the AUMCExtra ([1]; IV 2 mg/kg) of the same molecule?
The AUMCExtra was 0.616%.

And the Tlast ([1]; IV 2 mg/kg)?
The Tlast was 12.0 h.

What about the AUCExtra ([1]; PO 10 mg/kg) of the same molecule?
Its AUCExtra is 0.414%.

What about the AUMCExtra ([1]; PO 10 mg/kg) of the same molecule?
Its AUMCExtra is 4.62%.

What about the Tlast ([1]; PO 10 mg/kg) of the same molecule?
The Tlast was 24.0 h.

And the AUC(0-inf) ([1]; IV 2 mg/kg)?
Its AUC(0-inf) is 13.4 µM·h.

And the AUC(0-t) ([1]; IV 2 mg/kg)?
The AUC(0-t) was 13.4 µM·h.

And the C0 ([1]; IV 2 mg/kg)?
Its C0 is 12.2 µM.

What about the clearance ([1]; IV 2 mg/kg) of the same molecule?
Its clearance is 5.08 mL/min/kg.

And the half-life ([1]; IV 2 mg/kg)?
The half-life was 1.47 h.

And the MRT inf ([1]; IV 2 mg/kg)?
The MRT inf was 1.36 h.

And the MRT last ([1]; IV 2 mg/kg)?
Its MRT last is 1.35 h.

What about the Vd ([1]; IV 2 mg/kg) of the same molecule?
The Vd was 0.414 L/kg.

And the AUC(0-inf) ([1]; PO 10 mg/kg)?
The AUC(0-inf) was 60.3 µM·h.

What about the AUC(0-t) ([1]; PO 10 mg/kg) of the same molecule?
The AUC(0-t) was 60.1 µM·h.

What about the Cmax ([1]; PO 10 mg/kg) of the same molecule?
The Cmax was 27.9 µM.

What about the Tmax ([1]; PO 10 mg/kg) of the same molecule?
Its Tmax is 0.25 h.

What about the bioavailability ([1]; PO 10 mg/kg) of the same molecule?
The bioavailability was 89.9%.

And the half-life ([1]; PO 10 mg/kg)?
The half-life was 2.61 h.

What about the MRT inf ([1]; PO 10 mg/kg) of the same molecule?
The MRT inf was 2.49 h.

And the MRT last ([1]; PO 10 mg/kg)?
The MRT last was 2.39 h.

What about the IC50 [2] of the same molecule?
The IC50 was 0.257 µM.

And the IC50 [3]?
Its IC50 is 0.607 µM.

And the Kd [5]?
Its Kd is 0.00038 µM.

What about the IC50 [4] of the same molecule?
Its IC50 is 0.094 µM.

Which results are given for `C[C@H]1COCCN1c1nc(N2CCOC3(CC3)C2)nc2nc(-c3cccc(C(N)=O)c3)ccc12` [Embodiment 51]?
AUCExtra ([1]; IV 2 mg/kg): 0.0469%; AUMCExtra ([1]; IV 2 mg/kg): 0.400%; Tlast ([1]; IV 2 mg/kg): 12.0 h; AUCExtra ([1]; PO 10 mg/kg): 0.225%; AUMCExtra ([1]; PO 10 mg/kg): 1.02%; Tlast ([1]; PO 10 mg/kg): 12.0 h; AUC(0-inf) ([1]; IV 2 mg/kg): 9.37 µM·h; AUC(0-t) ([1]; IV 2 mg/kg): 9.73 µM·h; C0 ([1]; IV 2 mg/kg): 8.24 µM; clearance ([1]; IV 2 mg/kg): 7.72 mL/min/kg; half-life ([1]; IV 2 mg/kg): 1.1 h; MRT inf ([1]; IV 2 mg/kg): 1.6 h; MRT last ([1]; IV 2 mg/kg): 1.59 h; Vd ([1]; IV 2 mg/kg): 0.739 L/kg; AUC(0-inf) ([1]; PO 10 mg/kg): 42 µM·h; AUC(0-t) ([1]; PO 10 mg/kg): 41.9 µM·h; Cmax ([1]; PO 10 mg/kg): 12.8 µM; Tmax ([1]; PO 10 mg/kg): 0.25 h; bioavailability ([1]; PO 10 mg/kg): 89.5%; half-life ([1]; PO 10 mg/kg): 1.22 h; MRT inf ([1]; PO 10 mg/kg): 3.04 h; MRT last ([1]; PO 10 mg/kg): 3.02 h; Kd [5]: 0.0003 µM; IC50 [4]: 0.059 µM
